In patent US12209080B2, “Polymorphic forms of kinase inhibitor compound, pharmaceutical composition containing same, preparation method therefor and use thereof” (EQUINOX SCIENCES, LLC, priority 2016, dated 2025):
Values after ≈ are worked out from the molar mass of the structure shown.

How the values were obtained:
[1] = Stability of crystalline form 1 in aqueous methanol (XRPD detection); type: physicochemical
Excerpt: The stability of the crystalline form 1 in aqueous methanol solution at different temperature and for different time is as follows.

[2] = Grinding stability experiment (XRD); type: physicochemical; conditions: ground and sieved, US standard 200-300 mesh
Protocol: Crystalline form 1 was ground and sieved. The US standard 200-300 mesh sieved samples were collected and XRD analyzed. Analysis conditions: Shimadzu XRD-6000, CuK source (1.54056 Å) 40 kV, 30 mA; detection angle: 5-50°, speed: 5°/min.

[3] = Solubility of crystalline forms 1 and 2 in various media; type: physicochemical
Excerpt: (§1) The moisture content, solubility and dissolution rate of the crystalline forms 1 and 2 were detected using the methods described above. The results are shown in Table 21, which indicate that the solubility, dissolution, and moisture content (total pharmaceutical properties) of the crystalline form 1 are higher than that of the crystalline form 2. Moreover, the crystalline forms 1 and 2 have the highest solubility in methanol.

[4] = Determination of solubility in conventional solvents, visual inspection method; type: physicochemical; conditions: thermodynamic from solid, 25° C.
Excerpt: If the sample is still not dissolved at a specific concentration, its solubility is expressed as “<specific concentration”;

[5] = Dissolution rate of crystalline forms 1 and 2; type: physicochemical
Excerpt: as §1

[6] = Pharmacokinetic experiment, oral administration; type: in vivo, Sprague Dawley rats; conditions: rat, oral 10 mg/kg; for AUC(0-t) / Cmax: suspension in 0.5% CMC, 10 mg/kg
Protocol: Twelve Sprague Dawley rats with weight of 230-250 g were randomly divided into 2 groups, wherein each group consisted of 3 males and 3 females. Crystalline forms 1 and 2 were separately prepared as suspensions in 0.5% carboxymethylcellulose (CMC). The rats were fasted for 12 hours with free access to water and then orally administered at a dose of 10 mg/kg. Blood samples (0.2-0.3 ml) before and after 15, 30, 60, 120, 240, 360, 480, 720, 1440 minutes of the oral administration were collected in heparin anticoagulation tubes, which were then centrifuged to obtain plasma. The plasma was stored at −20° C., followed by analysis using API 4000 MS in conjunction with a HPLC unit. The pharmacokinetic parameters Cmax and AUC were calculated according to the determined plasma concentrations and summarized in Table 22.

[7] = Thermodynamic stability experiment in solvents at 60° C. (XRD); type: physicochemical; conditions: one day
Protocol: The crystalline form 1, crystalline form 2, crystalline form 3 and crystalline form 7 of the compound of formula I were mixed with acetone, ethyl acetate, methanol, water and tetrahydrofuran respectively, and then kept at 60° C. for one day for the investigation of the thermodynamic stability of each crystalline form. Insoluble solid was recovered by filtration and analyzed by XRD. Analysis conditions: Shimadzu XRD-6000, CuK source (1.54056 A) 40 kV, 30 mA; detection angle: 5-50°, speed: 5°/min.

[8] = Dynamic vapor sorption (DVS) / moisture absorption; type: physicochemical; conditions: for weight change (DVS): range of 0% RH to 80% RH, 25° C.
Protocol: (4) Dynamic Water Adsorption (DVS), TA Instruments Q5000 TGA; controlling software: Thermal Advantage; analysis software: Universal Analysis; sample plate: platinum crucible; amount of the sample to be detected: 1-10 mg; protective gas: nitrogen; gas flow fate: 10 mL/min; detection method: equilibration at 25° C., humidity: 0%, isothermal treatment: 90 min, weight change to be detected: from 0% RH to 80% RH;
as §1

[9] = Tissue accumulation experiment in tumor-bearing mice; type: in vivo, BALB/cA nude mice; parameters: content in Tumor / content in Liver / content in Kidney / content in Heart / content in Lung / content in Muscle / content in Brain: unit not given here
Protocol: Human colon cancer H-29 cells were implanted into the armpits of BALB/cA nude mice. Seven days after the implantation of H-29 cells, 8 female mice were administered with the crystalline form 1 (twice a day) at 40 mg/kg or sunitinib at 40 mg/kg (once a day). The drug administration was continuous for 21 days. Plasma, tissue and tumor samples were collected for analysis 4 hours after the administration on the 22nd day morning.

[10] = 40 mg/kg for 21 days (crystalline form 1 twice a day, sunitinib once a day), 4 hours after administration on day 22

Cc1[nH]c(/C=C2\C(=O)Nc3ccc(F)cc32)c(C)c1C(=O)N[C@H]1CCN(C(=O)N(C)C)C1 [crystalline form 1, 5-[5-fluoro-2-oxo-1,2-dihydro-indole-(3Z)-ylidenemethyl]-2,4-dimethyl-1H-pyrrole-3-carboxylic acid ((S)-1-dimethylcarbamoyl-pyrrolidin-3-yl)-amide]
XRPD detection ([1]; 2.0 g in 50 mL methanol, moisture (KF) 0.1%, 20-30° C., 2 hrs): form 1
XRPD detection ([1]; 2.0 g in 50 mL methanol, moisture (KF) 0.1%, 20-30° C., 4 hrs): form 1
XRPD detection ([1]; 2.0 g in 50 mL methanol, moisture (KF) 0.1%, 20-30° C., 8 hrs): form 1
XRPD detection ([1]; 2.0 g in 50 mL methanol, moisture (KF) 0.1%, 20-30° C., 21 hrs): form 1
XRPD detection ([1]; 2.0 g in 50 mL methanol, moisture (KF) 5.2%, 20-30° C., 2 hrs): form 1
XRPD detection ([1]; 2.0 g in 50 mL methanol, moisture (KF) 5.2%, 20-30° C., 4 hrs): form 1
XRPD detection ([1]; 2.0 g in 50 mL methanol, moisture (KF) 5.2%, 20-30° C., 8 hrs): form 1
XRPD detection ([1]; 2.0 g in 50 mL methanol, moisture (KF) 5.2%, 20-30° C., 21 hrs): form 1
XRPD detection ([1]; 2.0 g in 50 mL methanol, moisture (KF) 10%, 20-30° C., 2 hrs): form 1
XRPD detection ([1]; 2.0 g in 50 mL methanol, moisture (KF) 10%, 20-30° C., 4 hrs): form 1
XRPD detection ([1]; 2.0 g in 50 mL methanol, moisture (KF) 10%, 20-30° C., 8 hrs): form 1
XRPD detection ([1]; 2.0 g in 50 mL methanol, moisture (KF) 10%, 20-30° C., 21 hrs): form 1
XRPD detection ([1]; 5.0 g in 50 mL methanol, moisture (KF) 0.1%, reflux, 2 hrs): form 1
XRPD detection ([1]; 5.0 g in 50 mL methanol, moisture (KF) 0.1%, reflux, 4 hrs): form 1
XRPD detection ([1]; 5.0 g in 50 mL methanol, moisture (KF) 0.1%, reflux, 8 hrs): form 2
XRPD detection ([1]; 5.0 g in 50 mL methanol, moisture (KF) 0.1%, reflux, 21 hrs): form 2
XRPD detection ([1]; 5.0 g in 50 mL methanol, moisture (KF) 5.2%, reflux, 2 hrs): form 1
XRPD detection ([1]; 5.0 g in 50 mL methanol, moisture (KF) 5.2%, reflux, 4 hrs): form 1 + form 2
XRPD detection ([1]; 5.0 g in 50 mL methanol, moisture (KF) 5.2%, reflux, 8 hrs): form 2
XRPD detection ([1]; 5.0 g in 50 mL methanol, moisture (KF) 5.2%, reflux, 21 hrs): form 2
XRPD detection ([1]; 5.0 g in 50 mL methanol, moisture (KF) 10%, reflux, 2 hrs): form 1
XRPD detection ([1]; 5.0 g in 50 mL methanol, moisture (KF) 10%, reflux, 4 hrs): form 2
XRPD detection ([1]; 5.0 g in 50 mL methanol, moisture (KF) 10%, reflux, 8 hrs): form 2
XRPD detection ([1]; 5.0 g in 50 mL methanol, moisture (KF) 10%, reflux, 21 hrs): form 2
stability during grinding (XRD pattern before and after) [2]: remained stable
Solubility ([3]; 1% Tween 80): 60 µg/mL (≈ 137 µM)
Solubility ([3]; 1% sodium lauryl sulfate): 3480 µg/mL (≈ 7920 µM)
Solubility ([3]; 2% sodium lauryl sulfate): 3790 µg/mL (≈ 8620 µM)
Solubility ([3]; PEG 400): 3660 µg/mL (≈ 8330 µM)
Solubility ([3]; acetonitrile): 680 µg/mL (≈ 1550 µM)
Solubility ([3]; aqueous solution with pH of 1.0-7.5): 0.12 to 0.53 µg/mL
solubility at 4 h ([3]; artificial gastric juice, simulated gastric fluid, thermodynamic from solid, second line of this heading (Table 21 r21)): 0.43 µg/mL (≈ 0.978 µM)
Solubility ([3]; ethanol): 2460 µg/mL (≈ 5600 µM)
Solubility ([3]; glycerin): 570 µg/mL (≈ 1300 µM)
Solubility ([3]; methanol): 8170 µg/mL (≈ 18600 µM)
Solubility ([4]; acetone, organic solvent or mixture, read-out: solubility in acetone): 1000 to 2500 µg/mL (≈ 2280 to 5690 µM)
Solubility ([4]; acetonitrile, organic solvent or mixture, read-out: solubility in acetonitrile): < 1000 µg/mL
Solubility ([4]; ethanol, organic solvent or mixture, read-out: solubility in ethanol): 1000 to 2500 µg/mL (≈ 2280 to 5690 µM)
Solubility ([4]; ethyl acetate, organic solvent or mixture, read-out: solubility in ethyl acetate): < 1000 µg/mL
Solubility ([4]; methanol, organic solvent or mixture, read-out: solubility in methanol): 5000 to 12500 µg/mL (≈ 11400 to 28400 µM)
Solubility ([4]; methyl tert-butyl ether, organic solvent or mixture, read-out: solubility in methyl tert-butyl ether): < 1000 µg/mL
Solubility ([4]; n-heptane, organic solvent or mixture, read-out: solubility in n-heptane): < 1000 µg/mL
Solubility ([4]; tetrahydrofuran, organic solvent or mixture, read-out: solubility in tetrahydrofuran): 1000 to 2500 µg/mL (≈ 2280 to 5690 µM)
Solubility ([4]; toluene, organic solvent or mixture, read-out: solubility in toluene): < 1000 µg/mL
Solubility ([4]; water, read-out: solubility in water): < 1000 µg/mL
Internal dissolution rate [5]: 0.022 mg/(min · cm^2)
Cmax relative to crystalline form 2 [6]: about 4 times
exposure (AUC) relative to crystalline form 2 [6]: about 3 times
AUC(0-t) ([6]; average value): 10488.3 ng·h/mL
Cmax ([6]; average value): 1340.3 ng/mL
AUC(0-t) ([6]; female 1): 3536.6 ng·h/mL
Cmax ([6]; female 1): 593.9 ng/mL
AUC(0-t) ([6]; female 2): 28571.4 ng·h/mL
Cmax ([6]; female 2): 2649.0 ng/mL
AUC(0-t) ([6]; female 3): 16634.2 ng·h/mL
Cmax ([6]; female 3): 2033.3 ng/mL
AUC(0-t) ([6]; male 1): 3180.0 ng·h/mL
Cmax ([6]; male 1): 716.6 ng/mL
AUC(0-t) ([6]; male 2): 6766.0 ng·h/mL
Cmax ([6]; male 2): 1071.3 ng/mL
AUC(0-t) ([6]; male 3): 4241.5 ng·h/mL
Cmax ([6]; male 3): 977.7 ng/mL
crystalline form recovered (XRD) ([7]; acetone, ethyl acetate, methanol or water, conversion not complete in methanol): converted to crystalline form 2
crystalline form recovered (XRD) ([7]; tetrahydrofuran (THF)): to crystalline form 3
Moisture absorption ([8]; RH 50%): 2.015%
Moisture absorption ([8]; RH 80%): 2.578%
weight change (DVS) [8]: about 2.8%
weight change (DVS) ([8]; listed as Crystalline form 1): 2.8%
content in Brain [9, 10]: 9.3
content in Heart [9, 10]: 124.8
content in Kidney [9, 10]: 418.3
content in Liver [9, 10]: 1,715.3
content in Lung [9, 10]: 144.9
content in Muscle [9, 10]: 77.6
content in Plasma [9, 10]: 191.6
content in Tumor [9, 10]: 153.4
content in plasma, compared with sunitinib ([9]; 40 mg/kg twice a day, 21 days): comparable to that of sunitinib
tissue accumulation in all tested tissues, compared with sunitinib ([9]; 40 mg/kg twice a day, 21 days): significantly lower than that of sunitinib
